In patent publication US20130225684A1, “METHODS AND COMPOSITIONS FOR ENHANCEMENT OF VISION PERFORMANCE” (KYOWA HAKKO BIO CO., LTD., priority 2012, published 2013):
Entries after “also recorded” stand apart in the source; their conditions may differ. Where a SMILES comes first, the peptide text is derived from it.

Legend:
[1] = alanylglutamine compared to glutamine; cited from earlier work
[2] = into alanine and glutamine; cited from earlier work
[3] = alanylglutamine compared to glutamine; cited from earlier work; remark: listed apart in the source
[4] = hand-eye reaction time on the Dynavison D2 after a 40 minute basketball game; type: in vivo, women (basketball players); settings: for Visual reaction time: FIG. 2
Protocol: The purpose of this study was to examine the efficacy of L-alanyl-Lglutamine (AG) ingestion on sports vision, including reaction time. Ten women (21.2±1.6 years; height: 177.8±8.7 cm; body mass:73.5±8.0 kg), all basketball players, volunteered for this study. The study required subjects to first participate in a 40 minute basketball game. During one trial, subjects consumed only water (W), while during the other two trials subjects consumed the AG supplement marketed as Sustamine mixed in water using either a low dose (1 g per 500 ml) (AG1) or high dose (2 g per 500 ml) (AG2) concentration. Other subjects where not allowed to consume water or AG. (DHY) Measurement of hand-eye reaction time was performed on the Dynavison D2 (Dynavision, Ontario Canada). Subjects were required to assume a comfortable athletic stance and stand at a distance from the board where they could easily reach all of the lights. The board height was adjusted so the LCD screen was located just below eye level. Participants were told to fixate their gaze on the LCD screen in the middle of the board and to keep their focus there for the entirety of the experiment. During the assessment each subject pressed a light with their dominant side index finger on the board. When a second light flashed (on the same line of the initial light, but on the non-dominant side of their body), the subject removed their finger and pressed the new visual stimulus. The time necessary to recognize the new stimulus (new light lit until finger lifted from initial light) was recorded as visual reaction time, and the time it took for the subject to move and press the newly lit light was recorded as the motor reaction time. The total time for both visual reaction and motor reaction was calculated as the physical reaction time. A total of eight attempts were performed. The average time for all eight attempts was recorded.

Row | Compound | solubility in aqueous solutions [1] | degradation in the body [2] | heat stability [3] | Visual reaction time ([4]; AG1: low dose (1 g per 500 ml) in water, compared to DHY (no water and no AG), p=0.014) | change in the physical reaction time (combined visual and motor differences) ([4]; AG1: low dose (1 g per 500 ml) in water, compared to DHY, p=0.032) | Visual reaction time ([4]; AG2: high dose (2 g per 500 ml) in water, compared to DHY, p=0.018) | motor response (motor reaction time) ([4]; between trials (AG1, AG2, W, DHY), FIG. 3)
1 | C[C@H](N)C(=O)N[C@@H](CCC(N)=O)C(=O)O [AG, L-alanyl-Lglutamine] (H-Ala-Gln-OH) | superior | immediately degraded | superior | significantly better; also recorded: enhanced visual reaction time | significantly greater | trend toward a similar response | no significant differences
2 | NC(=O)CC[C@H](N)C(=O)O [glutamine, reference compound] | low-solubility |  |  |  |  |  | 
